Test results taken from ChEMBL document CHEMBL1135726, “Novel antagonists acting at the P2Y(1) purinergic receptor: synthesis and conformational analysis using potentiometric and nuclear magnetic resonance titration techniques” (J Med Chem, 2002).
Active and inactive are the calls of the source. The rule behind the calls is not given here.

Columns and labels:
[1] = target: P2X purinoceptor 1 (Rattus norvegicus) (UniProt P47824); experiment: Affinity at P2X purinoceptor 1 (P2X1) and the value is expressed as IC50
Chain of P2X purinoceptor 1 (Rattus norvegicus) (P47824 whole entry, looked up): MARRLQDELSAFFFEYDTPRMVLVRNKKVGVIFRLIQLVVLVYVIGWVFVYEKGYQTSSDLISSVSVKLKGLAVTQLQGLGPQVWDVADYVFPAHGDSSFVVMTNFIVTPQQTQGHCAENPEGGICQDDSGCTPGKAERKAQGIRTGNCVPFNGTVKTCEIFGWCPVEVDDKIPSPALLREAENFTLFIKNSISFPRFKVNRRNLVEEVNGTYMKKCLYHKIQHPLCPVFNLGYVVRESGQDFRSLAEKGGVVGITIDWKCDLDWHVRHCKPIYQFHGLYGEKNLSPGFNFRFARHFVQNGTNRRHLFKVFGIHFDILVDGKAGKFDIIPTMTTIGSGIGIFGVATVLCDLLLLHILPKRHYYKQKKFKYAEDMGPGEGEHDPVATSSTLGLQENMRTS

[2] = target: P2X purinoceptor 4 (Rattus norvegicus) (UniProt P51577); experiment: KB value was evaluated at the rat P2X purinoceptor 4 (P2X4); IA menas inactive
Chain of P2X purinoceptor 4 (Rattus norvegicus) (P51577 whole entry, looked up): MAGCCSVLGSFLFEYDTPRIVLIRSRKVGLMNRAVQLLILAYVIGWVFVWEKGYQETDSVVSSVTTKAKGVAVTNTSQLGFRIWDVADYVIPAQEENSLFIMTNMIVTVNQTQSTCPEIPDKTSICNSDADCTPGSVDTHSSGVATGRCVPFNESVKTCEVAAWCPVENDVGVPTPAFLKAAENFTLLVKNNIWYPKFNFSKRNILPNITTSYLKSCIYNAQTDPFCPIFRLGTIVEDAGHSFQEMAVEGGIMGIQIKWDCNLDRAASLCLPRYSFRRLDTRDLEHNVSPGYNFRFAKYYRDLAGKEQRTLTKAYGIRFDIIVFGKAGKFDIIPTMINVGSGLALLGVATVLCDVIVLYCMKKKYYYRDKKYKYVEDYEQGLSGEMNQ

[3] = target: P2Y purinoceptor 1 (Homo sapiens, UniProt P47900); experiment: pA2 value was evaluated against P2Y purinoceptor 1; details: read-out: pA2 (converted)
Chain of P2Y purinoceptor 1 (P47900 whole entry): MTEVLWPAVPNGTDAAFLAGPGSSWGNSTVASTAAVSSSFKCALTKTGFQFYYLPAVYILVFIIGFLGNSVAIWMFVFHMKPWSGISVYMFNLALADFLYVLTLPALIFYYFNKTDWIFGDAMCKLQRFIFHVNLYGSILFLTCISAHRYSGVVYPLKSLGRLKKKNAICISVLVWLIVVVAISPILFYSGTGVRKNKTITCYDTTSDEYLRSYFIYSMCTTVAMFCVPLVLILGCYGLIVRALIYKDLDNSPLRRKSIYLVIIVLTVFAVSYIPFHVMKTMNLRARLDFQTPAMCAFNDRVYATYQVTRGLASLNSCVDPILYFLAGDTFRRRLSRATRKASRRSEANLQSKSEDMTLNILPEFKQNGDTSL

[4] = target: P2X purinoceptor 2 (Rattus norvegicus) (UniProt P49653); experiment: KB value was evaluated at the rat P2X purinoceptor 2 (P2X2); IA menas inactive
Chain of P2X purinoceptor 2 (Rattus norvegicus) (P49653 whole entry, looked up): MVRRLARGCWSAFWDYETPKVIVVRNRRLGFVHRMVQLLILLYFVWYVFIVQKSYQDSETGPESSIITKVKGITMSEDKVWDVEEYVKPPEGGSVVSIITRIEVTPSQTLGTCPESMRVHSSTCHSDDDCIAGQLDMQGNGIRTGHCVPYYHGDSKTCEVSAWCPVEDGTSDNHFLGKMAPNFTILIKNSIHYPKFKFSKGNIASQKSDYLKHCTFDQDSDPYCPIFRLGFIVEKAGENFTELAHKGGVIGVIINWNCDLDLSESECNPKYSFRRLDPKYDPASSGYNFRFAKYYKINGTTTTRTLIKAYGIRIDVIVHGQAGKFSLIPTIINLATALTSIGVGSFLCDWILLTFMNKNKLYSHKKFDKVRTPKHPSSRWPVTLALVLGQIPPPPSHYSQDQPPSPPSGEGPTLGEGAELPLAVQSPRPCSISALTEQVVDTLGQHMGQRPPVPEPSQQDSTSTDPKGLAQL

[5] = species: Homo sapiens; experiment: Inhibitory concentration required to inhibit intracellular [Ca2+] rise induced in washed human platelets by 5 uM ADP; format: functional

Row | Compound | IC50 [1] [nM] | IA [2] | Kb [3] [nM] | IA [4] | Inhibition [5] [µM]
1 | CNc1ncnc2c1ncn2[C@H]1C[C@H](OP(=O)(O)O)[C@@H](COP(=O)(O)O)O1 | 1150 | inactive | 282 | inactive | 
2 | CNc1nc(C)nc2c1ncn2[C@H]1C[C@H](OP(=O)(O)O)[C@@H](COP(=O)(O)O)O1 |  |  | 77.6 |  | 100
